{
  "source": "patent EP0866074A1",
  "about": "“NOVEL NK374186 ANALOGUES OR PHARMACOLOGICALLY ACCEPTABLE SALTS THEREOF” (NIPPON KAYAKU KABUSHIKI KAISHA, priority 1995, dated 1996)",
  "key": {"[1]": {"test_system": "cell line A2780 derived from human ovarian cancer", "assay": "Suppression of cancer cell proliferation (MTT method)", "assay_type": "cell-based", "protocol": "Cells were cultured in an RPMI culture medium supplemented with 10 % calf fetus serum in the presence of 5 % CO2 at 37 °C. The cells were inoculated and cultured in a 96-well plate for one day, followed by addition of one of the pharmaceutical compounds. The cells were treated with the compounds for 3 days, and the effects were assessed by the proliferation-suppressed MTT method. The activities of the compounds on the suppression of the proliferation of Cancer cells are shown below. The cancer cells were of a cell line A2780 derived from human ovarian cancer."}, "Human peripheral T cells": {"test_system": "Human peripheral T cells", "assay": "Blastoid transformation via OKT-3 (3H-thymidine incorporation)", "assay_type": "cell-based", "settings": "2 ng/ml OKT-3 antibody, 72-hr cultivation", "protocol": "For cultivation, RPMI 1640 medium supplemented with 10 % calf fetus serum, 25 mM HEPS buffer, 100 µg/ml streptomycin […] and 100 units/ml penicillin G in a 96-well flat-bottom microplate (coaster) was used. As a mitogen, 2 ng/ml OKT-3 antibody was used.\nHuman peripheral T cells Were collected from blood drawn with heparin by the density-gradient centrifugation method. 200,000 cells and test compounds at individual concentrations were added to each well to a total volume of 0.2 ml, for 72-hr cultivation. Eight hours before termination of the cultivation, 37 kBq ^3H - thymidine was added to determine the incorporation thereof into the cells. The effects were evaluated on the basis of the ratio of the incorporated ^3H - thymidine in the groups with addition of the test compounds to the incorporated ^3H - thymidine in the control group (Japanese Immunology Association, Methods for Experiment Immunology, pp. 2267 - 2276)."}, "graft vs host reaction": {"test_system": "graft vs host reaction", "assay": "Graft vs host reaction (GVH), spleen weight method", "assay_type": "in vivo, mouse", "settings": "for Spleen weight/body weight: spleen weighed 7 days after transplantation, BDF mouse; for Index: relative to Untreated = 1.00", "protocol": "The spleen weight method by Fords, et al. [W.L. Ford et al., Handbook of Experimental Immunology 30, D.M. Weir, ed., Blackwell Scientific Publications, 1978, pp. 1] was followed. Spleen cells of 5×10^6, separated from a C57BL/6 mouse (8 weeks of age, male) as a donor, were transplanted peritoneally in a BDF mouse (7 weeks of age, male) as a recipient. Simultaneously, NK374186, a control agent or a solvent control (0.25 % gum arabic) was injected subcutaneously in the dorsal skin of the BDF mouse. The NK374186 and the control agent were preliminarily dissolved in 0.25 % gum arabic. Furthermore, on day 1 and day 2, the same administration was conducted, and 7 days after the transplantation, the spleen was weighed."}},
  "data": [
    {"smiles": "CCCCCCCCCCCCCC1OC(=O)C(COC(C)=O)NC(=O)C(C(C)OP(=O)(O)O)NC(=O)C(C(C)C)NC(=O)C(C)C(O)C1C", "note": "(stereo not shown) [NK374186P]", "values": [
      {"measurement": "IC50", "setting": "[1]; Homo sapiens, 72 h, A2780 cells, treated for 3 days, MTT method", "result": 33, "unit": "µg/mL"},
      {"measurement": "activities on the suppression of the proliferation of the cancer cells", "setting": "[1]; result in words, summary of Table 1", "result": "have activities on the suppression of the proliferation of the cancer cells"},
      {"measurement": "ratio of the incorporated 3H-thymidine in the groups with addition of the test compounds to the control group", "setting": "Human peripheral T cells; Concentration 0.03 (unit not given)", "result": 99.6},
      {"measurement": "ratio of the incorporated 3H-thymidine in the groups with addition of the test compounds to the control group", "setting": "Human peripheral T cells; Concentration 0.1 (unit not given)", "result": 100.6},
      {"measurement": "ratio of the incorporated 3H-thymidine in the groups with addition of the test compounds to the control group", "setting": "Human peripheral T cells; Concentration 0.3 (unit not given)", "result": 102.6},
      {"measurement": "ratio of the incorporated 3H-thymidine in the groups with addition of the test compounds to the control group", "setting": "Human peripheral T cells; Concentration 1.0 (unit not given)", "result": 119.7},
      {"measurement": "ratio of the incorporated 3H-thymidine in the groups with addition of the test compounds to the control group", "setting": "Human peripheral T cells; Concentration 3.0 (unit not given)", "result": 131.4},
      {"measurement": "ratio of the incorporated 3H-thymidine in the groups with addition of the test compounds to the control group", "setting": "Human peripheral T cells; Concentration 10.0 (unit not given)", "result": 97.7},
      {"measurement": "ratio of the incorporated 3H-thymidine in the groups with addition of the test compounds to the control group", "setting": "Human peripheral T cells; Concentration 30.0 (unit not given)", "result": 69.3},
      {"measurement": "Spleen weight/body weight", "setting": "graft vs host reaction; Dose 0.5 mg/kg subcutaneously on day 0, 1 and 2", "result": "10.01 X10^-3"},
      {"measurement": "Index", "setting": "graft vs host reaction; Dose 0.5 mg/kg", "result": 2.07},
      {"measurement": "Spleen weight/body weight", "setting": "graft vs host reaction; Dose 5.0 mg/kg subcutaneously on day 0, 1 and 2", "result": "11.45 X10^-3"},
      {"measurement": "Index", "setting": "graft vs host reaction; Dose 5.0 mg/kg", "result": 2.37},
      {"measurement": "Spleen weight/body weight", "setting": "graft vs host reaction; Dose 50.0 mg/kg subcutaneously on day 0, 1 and 2", "result": "12.00 X10^-3"},
      {"measurement": "Index", "setting": "graft vs host reaction; Dose 50.0 mg/kg", "result": 2.48},
      {"measurement": "effect on GVH", "setting": "graft vs host reaction; result in words, summary of Table 3, ratio of spleen weight to body weight increases depending on the dose", "result": "significant GVH suppression"}
    ]}
  ]
}
